Laboratory results published in ChEMBL document CHEMBL3585245, “Synthesis and antiproliferative evaluation of 9-methoxy-6-(piperazin-1-yl)-11H-indeno[1,2-c]quinoline-11-one derivatives. Part 4” (Medchemcomm, 2014).

Tested on: not listed separately
Experiment: Antiproliferative activity against human SKHep cells incubated for 72 hrs by MTT assay
Type: functional, cell-based
Settings: not given

| Structure (SMILES) | IC50 |
| --- | --- |
| COc1ccc2c(c1)C(=O)c1c-2c(N2CCN(C(=O)CN3CCOCC3)CC2)nc2ccccc12 | 19.9 µM |
| COc1ccc2c(c1)/C(=N\O)c1c-2c(N2CCNCC2)nc2ccccc12 | 3.75 µM |
| COc1ccc2c(c1)C(=O)c1c-2c(N2CCN(C(=O)CCN(C)C)CC2)nc2ccccc12 | 16.6 µM |
| COc1ccc2c(c1)C(=O)c1c-2c(N2CCN(C(=O)CCNCCCN(C)C)CC2)nc2ccccc12 | 8.6 µM |
| COc1ccc2c(c1)C(=O)c1c-2c(N2CCN(CC(O)CN(C)C)CC2)nc2ccccc12 (stereo not drawn) | 2.22 µM |

Tested on: NCI-H1299
Experiment: Antiproliferative activity against human H1299 cells incubated for 72 hrs by MTT assay
Type: functional, cell-based
Settings: NCI-H1299, 72 h

| Structure (SMILES) | IC50 |
| --- | --- |
| COc1ccc2c(c1)C(=O)c1c-2c(N2CCN(C(=O)CN3CCOCC3)CC2)nc2ccccc12 | > 30 µM |
| COc1ccc2c(c1)C(=O)c1c-2c(N2CCN(C(=O)CCN(C)C)CC2)nc2ccccc12 | 5.79 µM |
| COc1ccc2c(c1)C(=O)c1c-2c(N2CCN(CC(O)CN(C)C)CC2)nc2ccccc12 (stereo not drawn) | 6.84 µM |

Continued by falling IC50, values first:

| IC50 | Structure (SMILES) |
| --- | --- |
| 5.72 µM | COc1ccc2c(c1)/C(=N\O)c1c-2c(N2CCNCC2)nc2ccccc12 |
| 5.44 µM | COc1ccc2c(c1)C(=O)c1c-2c(N2CCN(C(=O)CCNCCCN(C)C)CC2)nc2ccccc12 |

Tested on: Detroit 551
Experiment: Antiproliferative activity against human Detroit 551 cells incubated for 72 hrs by MTT assay
Type: functional, cell-based
Settings: Detroit 551, 72 h

| Structure (SMILES) | IC50 |
| --- | --- |
| COc1ccc2c(c1)C(=O)c1c-2c(N2CCN(C(=O)CCN(C)C)CC2)nc2ccccc12 | 2.84 µM |
| COc1ccc2c(c1)C(=O)c1c-2c(N2CCN(C(=O)CCNCCCN(C)C)CC2)nc2ccccc12 | 6.42 µM |
| COc1ccc2c(c1)C(=O)c1c-2c(N2CCN(CC(O)CN(C)C)CC2)nc2ccccc12 (stereo not drawn) | 2.58 µM |

Tested on: MDA-MB-231
Experiment: Antiproliferative activity against human MDA-MB-231 cells incubated for 72 hrs by MTT assay
Type: functional, cell-based
Settings: MDA-MB-231, 72 h

| Structure (SMILES) | IC50 |
| --- | --- |
| COc1ccc2c(c1)C(=O)c1c-2c(N2CCN(C(=O)CN3CCOCC3)CC2)nc2ccccc12 | > 30 µM |
| COc1ccc2c(c1)C(=O)c1c-2c(N2CCN(C(=O)CCN(C)C)CC2)nc2ccccc12 | 6.61 µM |
| COc1ccc2c(c1)C(=O)c1c-2c(N2CCN(CC(O)CN(C)C)CC2)nc2ccccc12 (stereo not drawn) | 6.11 µM |

Further lines, results first:

| IC50 | Structure (SMILES) |
| --- | --- |
| 5.87 µM | COc1ccc2c(c1)/C(=N\O)c1c-2c(N2CCNCC2)nc2ccccc12 |
| 5.7 µM | COc1ccc2c(c1)C(=O)c1c-2c(N2CCN(C(=O)CCNCCCN(C)C)CC2)nc2ccccc12 |

Tested on: not listed separately
Experiment: Antiproliferative activity against human 786-O cells incubated for 72 hrs by MTT assay
Type: functional, cell-based
Settings: 786-0, 72 h

| Structure (SMILES) | IC50 |
| --- | --- |
| COc1ccc2c(c1)C(=O)c1c-2c(N2CCN(C(=O)CN3CCOCC3)CC2)nc2ccccc12 | > 30 µM |
| COc1ccc2c(c1)/C(=N\O)c1c-2c(N2CCNCC2)nc2ccccc12 | 1.2 µM |
| COc1ccc2c(c1)C(=O)c1c-2c(N2CCN(C(=O)CCN(C)C)CC2)nc2ccccc12 | 11.5 µM |
| COc1ccc2c(c1)C(=O)c1c-2c(N2CCN(C(=O)CCNCCCN(C)C)CC2)nc2ccccc12 | 5.9 µM |
| COc1ccc2c(c1)C(=O)c1c-2c(N2CCN(CC(O)CN(C)C)CC2)nc2ccccc12 (stereo not drawn) | 6.8 µM |

Tested on: AGS
Experiment: Antiproliferative activity against human AGS cells incubated for 72 hrs by MTT assay
Type: functional, cell-based
Settings: not given

| Structure (SMILES) | IC50 |
| --- | --- |
| COc1ccc2c(c1)C(=O)c1c-2c(N2CCN(C(=O)CN3CCOCC3)CC2)nc2ccccc12 | 21.4 µM |
| COc1ccc2c(c1)C(=O)c1c-2c(N2CCN(C(=O)CCN(C)C)CC2)nc2ccccc12 | 8.11 µM |
| COc1ccc2c(c1)C(=O)c1c-2c(N2CCN(CC(O)CN(C)C)CC2)nc2ccccc12 (stereo not drawn) | 7.86 µM |

Continued, values first:

| IC50 | Structure (SMILES) |
| --- | --- |
| 1.74 µM | COc1ccc2c(c1)/C(=N\O)c1c-2c(N2CCNCC2)nc2ccccc12 |
| 2.8 µM | COc1ccc2c(c1)C(=O)c1c-2c(N2CCN(C(=O)CCNCCCN(C)C)CC2)nc2ccccc12 |

Tested on: HeLa
Experiment: Antiproliferative activity against human HeLa cells incubated for 72 hrs by MTT assay
Type: functional, cell-based
Settings: not given

| Structure (SMILES) | IC50 |
| --- | --- |
| COc1ccc2c(c1)C(=O)c1c-2c(N2CCN(C(=O)CN3CCOCC3)CC2)nc2ccccc12 | 18 µM |
| COc1ccc2c(c1)C(=O)c1c-2c(N2CCN(C(=O)CCN(C)C)CC2)nc2ccccc12 | 11.7 µM |
| COc1ccc2c(c1)C(=O)c1c-2c(N2CCN(CC(O)CN(C)C)CC2)nc2ccccc12 (stereo not drawn) | 2.47 µM |

Further lines, results first:

| IC50 | Structure (SMILES) |
| --- | --- |
| 2.35 µM | COc1ccc2c(c1)/C(=N\O)c1c-2c(N2CCNCC2)nc2ccccc12 |
| 5.43 µM | COc1ccc2c(c1)C(=O)c1c-2c(N2CCN(C(=O)CCNCCCN(C)C)CC2)nc2ccccc12 |

Tested on: SAS
Experiment: Antiproliferative activity against human SAS cells incubated for 72 hrs by MTT assay
Type: functional, cell-based
Settings: not given

| Structure (SMILES) | IC50 |
| --- | --- |
| COc1ccc2c(c1)C(=O)c1c-2c(N2CCN(C(=O)CN3CCOCC3)CC2)nc2ccccc12 | > 30 µM |
| COc1ccc2c(c1)/C(=N\O)c1c-2c(N2CCNCC2)nc2ccccc12 | 6.1 µM |
| COc1ccc2c(c1)C(=O)c1c-2c(N2CCN(C(=O)CCN(C)C)CC2)nc2ccccc12 | 17 µM |
| COc1ccc2c(c1)C(=O)c1c-2c(N2CCN(C(=O)CCNCCCN(C)C)CC2)nc2ccccc12 | 13.5 µM |
| COc1ccc2c(c1)C(=O)c1c-2c(N2CCN(CC(O)CN(C)C)CC2)nc2ccccc12 (stereo not drawn) | 6.9 µM |
